# Assay results published in ChEMBL document CHEMBL3045219, “Molecular modeling studies, synthesis and biological evaluation of derivatives of N-phenylbenzamide as Plasmodium falciparum dihydroorotate dehydrogenase (PfDHODH) inhibitors” (Med Chem Res, 2011).
# Experiments:
# [1] = molecular target: T1, Dihydroorotate dehydrogenase (Plasmodium falciparum, UniProt Q54A96); assay: Inhibition of Plasmodium falciparum HIs6-tagged DHODH expressed in Escherichia coli DH5alpha using L-dihydroorotate as substrate by DCIP-based spectrophotometric analysis
# T1 sequence (Q54A96 whole entry): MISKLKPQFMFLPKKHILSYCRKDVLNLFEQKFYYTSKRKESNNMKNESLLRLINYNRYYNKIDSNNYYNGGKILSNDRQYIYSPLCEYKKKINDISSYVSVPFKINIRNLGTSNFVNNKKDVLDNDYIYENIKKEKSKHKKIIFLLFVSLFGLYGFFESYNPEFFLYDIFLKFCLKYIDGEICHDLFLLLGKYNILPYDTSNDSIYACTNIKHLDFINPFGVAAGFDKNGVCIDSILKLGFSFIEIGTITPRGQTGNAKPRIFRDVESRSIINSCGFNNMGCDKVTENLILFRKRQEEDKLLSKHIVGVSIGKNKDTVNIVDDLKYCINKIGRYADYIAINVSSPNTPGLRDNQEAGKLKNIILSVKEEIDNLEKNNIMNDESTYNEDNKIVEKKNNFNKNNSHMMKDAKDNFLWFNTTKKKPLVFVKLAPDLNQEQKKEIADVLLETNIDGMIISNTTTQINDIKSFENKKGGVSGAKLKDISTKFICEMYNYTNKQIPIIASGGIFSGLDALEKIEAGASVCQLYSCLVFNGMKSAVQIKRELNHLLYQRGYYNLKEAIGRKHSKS
# Plasmodium falciparum = assay: Antiplasmodial activity against Plasmodium falciparum assessed as inhibition of [3H]hypoxanthine incorporation; type: functional, organism-based
Compound,IC50 [1] [µM],IC50 (Plasmodium falciparum) [µM]
O=C(Nc1ccccc1C(F)(F)F)Nc1cccc2ccccc12,0.2,–
O=C(Nc1ccc(F)c(Cl)c1)c1ccccc1,–,5.7
Cc1ccc(NC(=O)c2ccccc2)cc1,–,> 10
O=C(Nc1ccccc1Cl)c1ccccc1,–,> 10
O=C(Nc1cccc(Cl)c1)c1ccccc1,–,8.7
O=C(Nc1ccccc1[N+](=O)[O-])c1ccccc1,–,> 10
Cc1c(C(=O)Nc2cc(Cl)cc(Cl)c2)cccc1[N+](=O)[O-],0.151,–
O=C(Nc1ccc(Cl)cc1)c1ccccc1,–,> 10
O=C(Nc1cccc(Cl)c1Cl)c1ccccc1,–,> 10
O=C(Nc1ccc(Cl)cc1Cl)c1ccccc1,–,> 10
Cc1cccc(NC(=O)c2ccccc2)c1,–,> 10
O=C(Nc1ccc(Br)cc1)c1ccccc1,–,> 10
O=C(Nc1ccc(Cl)cc1Cl)c1ccc2ccccc2c1,0.1,–
Cc1ccc(NC(=O)c2ccc3ccccc3c2)c(Cl)c1,0.151,–
O=C(Nc1ccccc1F)c1ccc2ccccc2c1,0.251,–
Cc1c(C(=O)Nc2cccc(Br)c2)cccc1[N+](=O)[O-],0.1,–
Cc1c(C(=O)Nc2ccc(F)c(F)c2)cccc1[N+](=O)[O-],0.151,–
Cc1c(C(=O)Nc2ccc(Cl)c(Cl)c2)cccc1[N+](=O)[O-],0.251,–
O=C(Nc1ccc(Cl)cc1)Nc1cccc2cccnc12,0.55,–
Cc1ccccc1NC(=O)c1ccccc1 [N-O-TOLYLBENZAMIDE],–,> 10
O=C(Nc1ccccc1)c1ccccc1 [N-PHENYLBENZAMIDE],–,> 10

# Results, then the compound that gave them:
IC50 [1] [µM],IC50 (Plasmodium falciparum) [µM],Compound
871,–,Cc1ccc(NC(=O)/C(C#N)=C(\O)C2CC2)cc1
708,–,N#C/C(C(=O)Nc1ccc(C#N)cc1)=C(/O)C1CC1
1070,–,N#C/C(C(=O)Nc1ccc(C(F)(F)F)cc1)=C(/O)C1CC1
–,> 10,O=C(Nc1ccc([N+](=O)[O-])cc1)c1ccccc1
–,> 10,O=C(Nc1cccc([N+](=O)[O-])c1)c1ccccc1
–,> 10,COc1ccc(NC(=O)c2ccccc2)cc1Cl
0.1,–,Cc1c(C(=O)Nc2cccc3ccccc23)cccc1[N+](=O)[O-]
0.302,–,Cc1cccc(NC(=O)c2cccc([N+](=O)[O-])c2C)c1
0.251,–,COc1ccccc1NC(=O)Nc1cccc2ccccc12
537,–,N#C/C(C(=O)Nc1ccc([N+](=O)[O-])cc1)=C(/O)C1CC1
–,0.017,C[C@H]1[C@H](OC(=O)CCC(=O)O)O[C@@H]2O[C@@]3(C)CC[C@H]4[C@H](C)CC[C@@H]1[C@@]24OO3 [ARTESUNATE]
